Here are results for five molecules from patent US5723449A, “Methods and compositions for inhibiting uridine secretion” (priority 1996, dated 1998).

Where two headings read alike, the source gives them in different places.

The test system of one data set is bone marrow cell growth. To be noted: cited from earlier work; for limiting toxicity: in vivo.
A short description of data set [1]: Administration of dilazep to Rhesus monkeys, plasma uridine levels and toxicity. It is filed as in vivo. To be noted: dilazep 1 to 2 mg/kg of body weight per day. The method, then:
Uridine secretion can be inhibited by administering compounds of the type noted above by Formula (I) or by administering the uridine competing compounds noted above. Uridine secretion inhibiting compounds of the type denoted by Formula (I) typically are administered at preferred doses in the range of about 1 to 5 mg/kg of body weight 2 to 3 times per day. Uridine competing compounds preferably are administered at doses ranging from 5 to 50 mg/kg of body weight 2 to 3 times per day. […] Moreover, such treatment increases by about 4 to 5-fold, the plasma half-life of uridine. These uridine levels are roughly equivalent to those obtained by administering high doses of uridine (1 to 3 g/m^2 per day), without the toxic side effects associated with uridine administration.

Data set [2] can be described thus: Single subcutaneous dose of uridine with and without dilazep, plasma/urine uridine pharmacokinetics. The data set is classed as in vivo, rhesus monkeys (Macaca mulatta). To be noted: rhesus monkey, sc. The method, then: Single dose of Uridine and effect of Dilazep
The uridine was administered both with and without dilazep. When dilazep was given it was administered at either 1 or 2 mg/kg of body weight, dissolved in sterile phosphate-buffed saline (pH 7.4). Samples of blood (3 ml) were collected in heparinized tubes at 0, 5, 10, 15 and 30 minutes and 1, 2, 4 and 6 hours after injection. When possible, urine was also collected by cytocentesis at similar time intervals. The plasma and urine samples were frozen at -20° C. until analysis.
The proteins were removed by centrifugation, and sample temperature was maintained at 5° C. The supernant was removed and an equivalent amount of a 1:1 mixture of ice cold trioctylamine and 1,1,2-trichlorotrifluoroethane (freon) was added. […] Reversed-phased chromatography was performed using a Hypersil ODS 5 μm column (Jones Chromatography, Littleton, Colo.). Urine samples were filtered through a 0.45 μm pore size Acro LC 13 filter (Gelman Sciences, Ann Arbor, Mich.) to remove proteins and 50 μl aliquots were analyzed by HPLC. Isocratic elution was performed at 1 ml/min with 10 mM phosphoric acid and 10 μM heptane sulfonic acid (pH 3.1). Column temperature was maintained at 25° C., and the absorbance was measured at 254 nm. […] After adding 5 ml of Econo-Safe scintillation fluor (Research Products International Corp., Mount Prospect, Ill.), radioactivity was measured by using Beckman Model LS 5000TA liquid scintillation counter (Beckman Instruments, Inc., Fullerton, Calif.) equipped with an automatic quenching correction program. […] The detection limits were 2.0 μM.
The pharmacokinetic parameters of uridine was estimated by […] model-independent methods using a SIPHAR/Base program. The AUC was determined by the trapeziodal rule with extrapolation to time infinity using the terminal disposition slope (K) generated by a weighted nonlinear least-squares regression of an exponential fit of the data, with the weighted square factor set as the reciprocal of the calculated concentration squared. […] The peak plasma concentration (Cmax) values and time to peak plasma concentration (Tmax) values were observed experimental values. Renal clearance (CLR) of uridine was calculated by dividing the […] by the AUC.

The conditions of data set [3]: cited from earlier work.
The subject of a further data set is heart tissue. To be noted: heart tissue of rabbits; cited from earlier work.
In data set [4] the test system is hearts. The note with it: hearts of frogs; cited from earlier work.
Data set [5] deals with hearts. To be noted: hearts of rats; cited from earlier work.
In data set [6] the test system is hearts. To be noted: hearts of dogs; cited from earlier work.
Data set [7] concerns isolated rat skeletal muscle. The note with it: low concentrations of uridine (10^-4 M); cited from earlier work.
The next data set deals with GABA receptor. To be noted: cerebellar membranes and brain areas associated with convulsions; cited from earlier work.
A further data set concerns CCl4 damaged rat livers. The note with it: cited from earlier work.
The subject of data set [8] is hereditary orotic aciduria. To be noted: human, in vivo; cited from earlier work.
The conditions of data set [9]: cited from earlier work. The source holds these as a separate data set.
Setting [10] is: plasma, uridine parameter, 83.3 mg/kg uridine s.c., no dilazep.

Consider `O=c1[nH]cc(F)c(=O)[nH]1` [5-FU, 5-fluorouracil], for which the limiting toxicity result in the data set on bone marrow cell growth was “myelosuppression”.

Consider `Cc1cn([C@H]2C[C@H](N=[N+]=[N-])[C@@H](CO)O2)c(=O)[nH]c1=O` [AZT, 3'-azido-3'-deoxythymidine], for which, in the data set with bone marrow cell growth, the limiting toxicity entry is given as “myelosuppression”.

As for `O=c1[nH]c(=O)n([C@H]2C[C@H](O)[C@@H](CO)O2)cc1F` [FdUrd, 5-fluoro-2'-deoxyuridine], the limiting toxicity entry in the data set on bone marrow cell growth was “myelosuppression”.

`COc1cc(C(=O)OCCCN2CCCN(CCCOC(=O)c3cc(OC)c(OC)c(OC)c3)CC2)cc(OC)c1OC` [dilazep, N,N'-bis[3-(3,4,5-trmethoxybenzoyloxy)propyl] homopiperazine]: the toxicity entry in data set [1] is listed as “without apparent toxicity”.

In data set [2] (in vivo, 83.3 mg/kg), `O=c1ccn([C@@H]2O[C@H](CO)[C@@H](O)[C@H]2O)c(=O)[nH]1` [uridine] yielded a Cmax/C0 of 10.7. In addition, the CL renal in [2] (in vivo, uridine parameter, 83.3 mg/kg uridine s.c., no dilazep, read-out: ClR (renal clearance of uridine) (converted)) was 1.12 mL/min/kg. Also, in [2] (setting [10]), the AUC is 370 µM·h. Besides, the peak level in data set [2] (setting [10]) (Cmax) was 175 µM. Besides, the Tmax in [2] (setting [10]) came to 30 min. Moreover, in [3] (endogenous, different species), the “concentration in blood plasma” value was 1 to 5 µM. Also, in [3] (hepatic uridine phosphorylase), the “plasma uridine entering the liver by the portal vein degraded in single pass” value is given as “More than 90%”. In data set [3] (in vivo), the “half life in the plasma” value is recorded as “approximately 2 minutes”. For the same molecule, the “myocardial performance, glucose uptake, glycogen synthesis and breakdown of ATP” value in the data set with heart tissue is “increase myocardial performance, glucose uptake, glycogen synthesis and the breakdown of ATP”. Moreover, the myocardial contractility entry in the data set with hearts [4], in the data set with hearts [5] and in the data set on hearts [6] was “increase myocardial contractility” throughout. The “glucose uptake and glycogen synthesis” value in data set [7] is “increase glucose uptake and glycogen synthesis”. Besides, the “effect on the GABA receptor” value in the data set with GABA receptor is “may have an agonist effect on the receptor”. Besides, in the data set on CCl4 damaged rat livers, the “conjugating and excretory functions” value is “normalize conjugating and excretory functions”. The “management of patients with hereditary orotic aciduria” value in data set [8] is reported as “effective to manage patients with hereditary orotic aciduria”. In addition, the “urinary excretion of uridine” value in [9] (high doses of uridine (1 to 3 gm/m^2), several times per day) was 15-40 % of the dose. The toxic side effects result in [9] (high doses of uridine) is “phlebitis, pyrogenic reactions and diarrhea”. For the same molecule, the “protection (and reversal) from myelosuppression of pyrimidine analogues” value with bone marrow cell growth (in vitro and in vivo) is recorded as “Complete protection (and reversal)”.

Broadly, the AUC is concentration integrated over time. For orientation: Cmax means the peak of the concentration-time curve. By Tmax is commonly meant the time at which the peak concentration occurs.
